Converted amounts (≈) assume the structure as drawn.
What was measured:
Format in all cases: cell-based
[1] = tested on: S. aureus; assay: MIC values, S. aureus (Tables 1-4)
[2] = tested on: S. pneumo.; assay: MIC values, S. pneumo. (Tables 1-4)
[3] = tested on: E. faecalis; assay: MIC values, E. faecalis (Tables 1-4)
[4] = tested on: H. flu
[5] = tested on: E. coli; assay: MIC values, E. coli (Tables 1-4)

Structure (SMILES) | MIC S. aureus [1] | MIC S. pneumo. [2] | MIC E. faecalis [3] | MIC H. flu [4] | MIC E. coli [5]
CO[C@H]1/C=C/O[C@@]2(C)Oc3c(C)c(O)c4c(=O)c(c5oc6cc(N7CCN(Cc8ccccc8)CC7)cc(O)c6nc-5c4c3C2=O)NC(=O)/C(C)=C\C=C\[C@H](C)[C@H](O)[C@@H](C)[C@@H](O)[C@@H](C)[C@H](O)[C@@H]1C [Compound 89] | 0.03 µg/mL (≈ 0.0322 µM) | 0.001 µg/mL (≈ 0.00107 µM) | >8 µg/mL | 8 µg/mL (≈ 8.57 µM) | >8 µg/mL
CO[C@H]1/C=C/O[C@@]2(C)Oc3c(C)c(O)c4c(=O)c(c5oc6cc(N7C[C@@H](C)N[C@@H](C)C7)cc(O)c6nc-5c4c3C2=O)NC(=O)/C(C)=C\C=C\[C@H](C)[C@H](O)[C@@H](C)[C@@H](O)[C@@H](C)[C@H](O)[C@@H]1C [Compound 90] | 0.008 µg/mL (≈ 0.00918 µM) | 0.0005 µg/mL (≈ 0.000574 µM) | 0.06 µg/mL (≈ 0.0689 µM) | 0.25 µg/mL (≈ 0.287 µM) | 4 µg/mL (≈ 4.59 µM)
CC[C@@H]1CN(c2cc(O)c3nc4c5c6c7c(C)c(O)c5c(=O)c(c-4oc3c2)NC(=O)/C(C)=C\C=C\[C@H](C)[C@H](O)[C@@H](C)[C@@H](O)[C@@H](C)[C@H](O)[C@H](C)[C@@H](OC)/C=C/O[C@@](C)(O7)C6=O)C[C@H](CC)N1 [Compound 91] | 0.03 µg/mL (≈ 0.0334 µM) | 0.0005 µg/mL (≈ 0.000556 µM) | 0.12 µg/mL (≈ 0.133 µM) | 0.25 µg/mL (≈ 0.278 µM) | 4 µg/mL (≈ 4.45 µM)
COCCN1CCN(c2cc(O)c3nc4c5c6c7c(C)c(O)c5c(=O)c(c-4oc3c2)NC(=O)/C(C)=C\C=C\[C@H](C)[C@H](O)[C@@H](C)[C@@H](O)[C@@H](C)[C@H](O)[C@H](C)[C@@H](OC)/C=C/O[C@@](C)(O7)C6=O)CC1 [Compound 92] | 0.004 µg/mL (≈ 0.00444 µM) | 0.00025 µg/mL (≈ 0.000277 µM) | 0.12 µg/mL (≈ 0.133 µM) | 0.25 µg/mL (≈ 0.277 µM) | 8 µg/mL (≈ 8.88 µM)
CC[C@H]1CN(c2cc(O)c3nc4c5c6c7c(C)c(O)c5c(=O)c(c-4oc3c2)NC(=O)/C(C)=C\C=C\[C@H](C)[C@H](O)[C@@H](C)[C@@H](O)[C@@H](C)[C@H](O)[C@H](C)[C@@H](OC)/C=C/O[C@@](C)(O7)C6=O)C[C@H](C)N1 [Compound 93] | 0.004 µg/mL (≈ 0.00452 µM) | 0.00012 µg/mL (≈ 0.000136 µM) | 0.5 µg/mL (≈ 0.565 µM) | 0.25 µg/mL (≈ 0.282 µM) | 4 µg/mL (≈ 4.52 µM)
CCOc1c(N2CCN(CC)CC2)ccc2nc3c4c5c6c(C)c(O)c4c(=O)c(c-3oc12)NC(=O)/C(C)=C\C=C\[C@H](C)[C@H](O)[C@@H](C)[C@@H](O)[C@@H](C)[C@H](O)[C@H](C)[C@@H](OC)/C=C/O[C@@](C)(O6)C5=O [Compound 94] | 0.008 µg/mL (≈ 0.0089 µM) | 0.0005 µg/mL (≈ 0.000556 µM) | 0.5 µg/mL (≈ 0.556 µM) | 0.25 µg/mL (≈ 0.278 µM) | 8 µg/mL (≈ 8.9 µM)
CCOc1c(N2CCN(CCOC)CC2)cc(N2CCN(CCOC)CC2)c2nc3c4c5c6c(C)c(O)c4c(=O)c(c-3oc12)NC(=O)/C(C)=C\C=C\[C@H](C)[C@H](O)[C@@H](C)[C@@H](O)[C@@H](C)[C@H](O)[C@H](C)[C@@H](OC)/C=C/O[C@@](C)(O6)C5=O [Compound 95] | 0.12 µg/mL (≈ 0.112 µM) | 0.001 µg/mL (≈ 0.000933 µM) | 8 µg/mL (≈ 7.47 µM) | 2 µg/mL (≈ 1.87 µM) | >8 µg/mL
CCOc1c(N2CCN(CCOC)CC2)ccc2nc3c4c5c6c(C)c(O)c4c(=O)c(c-3oc12)NC(=O)/C(C)=C\C=C\[C@H](C)[C@H](O)[C@@H](C)[C@@H](O)[C@@H](C)[C@H](O)[C@H](C)[C@@H](OC)/C=C/O[C@@](C)(O6)C5=O [Compound 96] | 0.015 µg/mL (≈ 0.0161 µM) | 0.005 µg/mL (≈ 0.00538 µM) | 1 µg/mL (≈ 1.08 µM) | 0.5 µg/mL (≈ 0.538 µM) | >8 µg/mL
CO[C@H]1/C=C/O[C@@]2(C)Oc3c(C)c(O)c4c(=O)c(c5oc6cc(N7CCN(C8CCN(C)CC8)CC7)cc(O)c6nc-5c4c3C2=O)NC(=O)/C(C)=C\C=C\[C@H](C)[C@H](O)[C@@H](C)[C@@H](O)[C@@H](C)[C@H](O)[C@@H]1C [Compound 98] | 0.015 µg/mL (≈ 0.016 µM) | 0.002 µg/mL (≈ 0.00213 µM) | 0.5 µg/mL (≈ 0.532 µM) | 1 µg/mL (≈ 1.06 µM) | >8 µg/mL
CO[C@H]1/C=C/O[C@@]2(C)Oc3c(C)c(O)c4c(=O)c(c5oc6cc(N7CCN(CC8CC8)CC7)cc(O)c6nc-5c4c3C2=O)NC(=O)/C(C)=C\C=C\[C@H](C)[C@H](O)[C@@H](C)[C@@H](O)[C@@H](C)[C@H](O)[C@@H]1C [Compound 99] | 0.008 µg/mL (≈ 0.00892 µM) | 0.0005 µg/mL (≈ 0.000557 µM) | 0.06 µg/mL (≈ 0.0669 µM) | 0.25 µg/mL (≈ 0.279 µM) | 2 µg/mL (≈ 2.23 µM)
COC1C=COC2(C)Oc3c(C)c(O)c4c(=O)c(c5oc6cc(N7CC(C)NCC7C)cc(O)c6nc-5c4c3C2=O)NC(=O)C(C)=CC=CC(C)C(O)C(C)C(O)C(C)C(O)C1C (centres unmarked) [Compound 100] | 0.004 µg/mL (≈ 0.00459 µM) | 0.0005 µg/mL (≈ 0.000574 µM) | 0.12 µg/mL (≈ 0.138 µM) | 0.25 µg/mL (≈ 0.287 µM) | 4 µg/mL (≈ 4.59 µM)
CO[C@H]1/C=C/O[C@@]2(C)Oc3c(C)c(O)c4c(=O)c(c5oc6cc(N7CCN(CCO)CC7)cc(O)c6nc-5c4c3C2=O)NC(=O)/C(C)=C\C=C\[C@H](C)[C@H](O)[C@@H](C)[C@@H](O)[C@@H](C)[C@H](O)[C@@H]1C [Compound 101] | 0.008 µg/mL (≈ 0.00902 µM) | 0.0005 µg/mL (≈ 0.000564 µM) | 0.12 µg/mL (≈ 0.135 µM) | 0.25 µg/mL (≈ 0.282 µM) | 8 µg/mL (≈ 9.02 µM)
CO[C@H]1/C=C/O[C@@]2(C)Oc3c(C)c(O)c4c(=O)c(c5oc6cc(N7CCN(CCN(C)C)CC7)cc(O)c6nc-5c4c3C2=O)NC(=O)/C(C)=C\C=C\[C@H](C)[C@H](O)[C@@H](C)[C@@H](O)[C@@H](C)[C@H](O)[C@@H]1C [Compound 103] | 0.03 µg/mL (≈ 0.0328 µM) | 0.008 µg/mL (≈ 0.00875 µM) | 0.5 µg/mL (≈ 0.547 µM) | 0.12 µg/mL (≈ 0.131 µM) | >8 µg/mL
CO[C@H]1/C=C/O[C@@]2(C)Oc3c(C)c(O)c4c(=O)c(c5sc6cc(N7CCN(C)CC7)ccc6nc-5c4c3C2=O)NC(=O)/C(C)=C\C=C\[C@H](C)[C@H](O)[C@@H](C)[C@@H](O)[C@@H](C)[C@H](O)[C@@H]1C [Compound 104] | 0.002 µg/mL (≈ 0.00233 µM) | 0.00012 µg/mL (≈ 0.00014 µM) | 0.12 µg/mL (≈ 0.14 µM) | 0.12 µg/mL (≈ 0.14 µM) | 2 µg/mL (≈ 2.33 µM)
CO[C@H]1/C=C/O[C@@]2(C)Oc3c(C)c(O)c4c(=O)c(c5oc6cc(N7CCN(CCF)CC7)cc(O)c6nc-5c4c3C2=O)NC(=O)/C(C)=C\C=C\[C@H](C)[C@H](O)[C@@H](C)[C@@H](O)[C@@H](C)[C@H](O)[C@@H]1C [Compound 105] | 0.004 µg/mL (≈ 0.0045 µM) | 0.001 µg/mL (≈ 0.00112 µM) | 0.12 µg/mL (≈ 0.135 µM) | 0.12 µg/mL (≈ 0.135 µM) | 8 µg/mL (≈ 9 µM)
CO[C@H]1/C=C/O[C@@]2(C)Oc3c(C)c(O)c4c(=O)c(c5oc6cc(N7CCN(c8ncccn8)CC7)cc(O)c6nc-5c4c3C2=O)NC(=O)/C(C)=C\C=C\[C@H](C)[C@H](O)[C@@H](C)[C@@H](O)[C@@H](C)[C@H](O)[C@@H]1C [Compound 106] | 0.004 µg/mL (≈ 0.00434 µM) | 0.0005 µg/mL (≈ 0.000543 µM) | 0.25 µg/mL (≈ 0.271 µM) | 0.12 µg/mL (≈ 0.13 µM) | >8 µg/mL
CO[C@H]1/C=C/O[C@@]2(C)Oc3c(C)c(O)c4c(=O)c(c5oc6cc(N7CCNCC7)cc(O)c6nc-5c4c3C2=O)NC(=O)/C(C)=C\C=C\[C@H](C)[C@H](O)[C@@H](C)[C@@H](O)[C@@H](C)[C@H](O)[C@@H]1C [Compound 107] | 0.008 µg/mL (≈ 0.00949 µM) | 0.002 µg/mL (≈ 0.00237 µM) | 0.06 µg/mL (≈ 0.0712 µM) | 0.12 µg/mL (≈ 0.142 µM) | 4 µg/mL (≈ 4.75 µM)
CCOc1c(N2CCN(CC3CC3)CC2)ccc2nc3c4c5c6c(C)c(O)c4c(=O)c(c-3oc12)NC(=O)/C(C)=C\C=C\[C@H](C)[C@H](O)[C@@H](C)[C@@H](O)[C@@H](C)[C@H](O)[C@H](C)[C@@H](OC)/C=C/O[C@@](C)(O6)C5=O [Compound 108] | 0.03 µg/mL (≈ 0.0324 µM) | 0.015 µg/mL (≈ 0.0162 µM) | 0.5 µg/mL (≈ 0.54 µM) | 1 µg/mL (≈ 1.08 µM) | >8 µg/mL
CO[C@H]1/C=C/O[C@@]2(C)Oc3c(C)c(O)c4c(=O)c(c5oc6c(F)c(N7CCN(CC(C)C)CC7)ccc6nc-5c4c3C2=O)NC(=O)/C(C)=C\C=C\[C@H](C)[C@H](O)[C@@H](C)[C@@H](O)[C@@H](C)[C@H](O)[C@@H]1C [Compound 109] | 0.03 µg/mL (≈ 0.0333 µM) | 0.008 µg/mL (≈ 0.00888 µM) | 0.5 µg/mL (≈ 0.555 µM) | 0.5 µg/mL (≈ 0.555 µM) | 8 µg/mL (≈ 8.88 µM)
CO[C@H]1/C=C/O[C@@]2(C)Oc3c(C)c(O)c4c(=O)c(c5oc6cc(N7CCN(C(=O)C8CC8)CC7)cc(O)c6nc-5c4c3C2=O)NC(=O)/C(C)=C\C=C\[C@H](C)[C@H](O)[C@@H](C)[C@@H](O)[C@@H](C)[C@H](O)[C@@H]1C [Compound 110] | 0.015 µg/mL (≈ 0.0165 µM) | 0.004 µg/mL (≈ 0.00439 µM) | 0.5 µg/mL (≈ 0.549 µM) | 0.25 µg/mL (≈ 0.274 µM) | 8 µg/mL (≈ 8.78 µM)
CCc1cc2nc3c4c5c6c(C)c(O)c4c(=O)c(c-3oc2cc1N1CCCCC1)NC(=O)/C(C)=C\C=C\[C@H](C)[C@H](O)[C@@H](C)[C@@H](O)[C@@H](C)[C@H](O)[C@H](C)[C@@H](OC)/C=C/O[C@@](C)(O6)C5=O [Compound 111] | 1 µg/mL (≈ 1.17 µM) | 0.12 µg/mL (≈ 0.141 µM) | 4 µg/mL (≈ 4.68 µM) | 2 µg/mL (≈ 2.34 µM) | 1 µg/mL (≈ 1.17 µM)
CO[C@H]1/C=C/O[C@@]2(C)Oc3c(C)c(O)c4c(=O)c(c5oc6cc(N7CCC(C(N)=O)CC7)cc(O)c6nc-5c4c3C2=O)NC(=O)/C(C)=C\C=C\[C@H](C)[C@H](O)[C@@H](C)[C@@H](O)[C@@H](C)[C@H](O)[C@@H]1C [Compound 112] | 0.03 µg/mL (≈ 0.0339 µM) | 0.002 µg/mL (≈ 0.00226 µM) | 1 µg/mL (≈ 1.13 µM) | 0.25 µg/mL (≈ 0.282 µM) | >8 µg/mL
